Laboratory results as given in paper PMC5218480 (PLoS ONE, 2017).

System: MV-4-11 cells
Assay: Gene expression microarray analysis (Affymetrix PrimeView) and GSEA
Format: cell-based, human
Set-up: RFU PODN (11730768_x_at) / Fold change /veh PODN (11730768_x_at) / RFU LINC00158 (11744669_a_at) / Fold change /veh LINC00158 (11744669_a_at) / RFU DUSP10 (11751237_a_at) / Fold change /veh DUSP10 (11751237_a_at) / RFU ID3 (11757404_x_at) / Fold change /veh ID3 (11757404_x_at) / RFU PLEKHG5 (11737974_s_at) / Fold change /veh PLEKHG5 (11737974_s_at) / RFU LRRC4B (11730491_at) / Fold change /veh LRRC4B (11730491_at) / RFU GIMAP4 (11747438_a_at) / Fold change /veh GIMAP4 (11747438_a_at) / RFU KRT8 (11758183_x_at) / Fold change /veh KRT8 (11758183_x_at) / RFU CNN1 (11734310_a_at) / Fold change /veh CNN1 (11734310_a_at) / RFU VPS37D (11726825_at) / Fold change /veh VPS37D (11726825_at) / RFU C10orf10 (11716522_x_at) / Fold change /veh C10orf10 (11716522_x_at) / RFU KIR2DL2 /// KIR2DL4 /// KIR2DL5A /// KIR2DL5B /// KIR2DS1 /// KIR2DS2 /// KIR2DS3 /// KIR2DS4 /// KIR3DL3 /// KIR3DL3 /// KIR3DS1 (11738374_at) / Fold change /veh KIR2DL2 /// KIR2DL4 /// KIR2DL5A /// KIR2DL5B /// KIR2DS1 /// KIR2DS2 /// KIR2DS3 /// KIR2DS4 /// KIR3DL3 /// KIR3DL3 /// KIR3DS1 (11738374_at) / RFU C1QL1 (11718748_at) / Fold change /veh C1QL1 (11718748_at) / RFU TMPRSS4 (11747572_a_at) / Fold change /veh TMPRSS4 (11747572_a_at) / RFU HAMP (11756126_x_at) / Fold change /veh HAMP (11756126_x_at) / RFU RNFT2 (11725882_a_at) / Fold change /veh RNFT2 (11725882_a_at) / RFU NR4A2 (11747474_a_at) / Fold change /veh NR4A2 (11747474_a_at) / RFU ABCC12 (11746883_a_at) / Fold change /veh ABCC12 (11746883_a_at) / RFU TMEM136 (11760407_x_at) / Fold change /veh TMEM136 (11760407_x_at) / RFU CLDN22 /// WWC2 (11732394_at) / Fold change /veh CLDN22 /// WWC2 (11732394_at) / RFU HLA-DPB1 (11760878_x_at) / Fold change /veh HLA-DPB1 (11760878_x_at) / RFU SPINT1 (11716480_a_at) / Fold change /veh SPINT1 (11716480_a_at) / RFU GAP43 (11754022_s_at) / Fold change /veh GAP43 (11754022_s_at) / RFU A4GNT (11735810_at) / Fold change /veh A4GNT (11735810_at) / RFU PRB3 (11715151_x_at) / Fold change /veh PRB3 (11715151_x_at) / RFU TUBB4B (11761932_at) / Fold change /veh TUBB4B (11761932_at) / RFU CAPN14 (11732068_a_at) / Fold change /veh CAPN14 (11732068_a_at) / RFU TMCC2 (11721928_a_at) / Fold change /veh TMCC2 (11721928_a_at) / RFU IRGQ (11745062_a_at) / Fold change /veh IRGQ (11745062_a_at) / RFU FAM174B (11720279_a_at) / Fold change /veh FAM174B (11720279_a_at) / RFU TMPRSS4 (11748680_a_at) / Fold change /veh TMPRSS4 (11748680_a_at) / RFU FAM212B (11763350_a_at) / Fold change /veh FAM212B (11763350_a_at) / RFU PLEKHG5 (11743358_a_at) / Fold change /veh PLEKHG5 (11743358_a_at) / RFU ZSCAN30 (11745921_a_at) / Fold change /veh ZSCAN30 (11745921_a_at) / RFU CMKLR1 (11741424_a_at) / Fold change /veh CMKLR1 (11741424_a_at) / RFU LOC101060620 /// MAPK8IP1 (11723275_at) / Fold change /veh LOC101060620 /// MAPK8IP1 (11723275_at) / RFU SPTSSB (11747773_x_at) / Fold change /veh SPTSSB (11747773_x_at) / RFU PRSS12 (11739890_at) / Fold change /veh PRSS12 (11739890_at) / RFU BIN1 (11741810_x_at) / Fold change /veh BIN1 (11741810_x_at) / RFU WNT11 (11732464_a_at) / Fold change /veh WNT11 (11732464_a_at) / RFU C10orf10 (11716521_a_at) / Fold change /veh C10orf10 (11716521_a_at) / RFU C5orf56 (11738089_at) / Fold change /veh C5orf56 (11738089_at) / RFU CYB561 (11721691_x_at) / Fold change /veh CYB561 (11721691_x_at) / RFU ANKRD19P (11752326_a_at) / Fold change /veh ANKRD19P (11752326_a_at) / RFU OR2T12 /// OR2T33 /// OR2T8 (11738714_s_at) / Fold change /veh OR2T12 /// OR2T33 /// OR2T8 (11738714_s_at) / RFU VCAN (11748164_a_at) / Fold change /veh VCAN (11748164_a_at) / RFU JSRP1 (11732532_at) / Fold change /veh JSRP1 (11732532_at) / RFU KRTAP10-11 (11738290_x_at) / Fold change /veh KRTAP10-11 (11738290_x_at) / RFU MYO3A (11730013_a_at) / Fold change /veh MYO3A (11730013_a_at) / RFU EBF3 (11725865_a_at) / Fold change /veh EBF3 (11725865_a_at) / RFU CAMK2N1 (11719241_x_at) / Fold change /veh CAMK2N1 (11719241_x_at) / RFU C5orf56 (11738088_a_at) / Fold change /veh C5orf56 (11738088_a_at) / RFU OLFML3 (11715873_a_at) / Fold change /veh OLFML3 (11715873_a_at) / RFU LOC100653217 /// NTM (11731650_a_at) / Fold change /veh LOC100653217 /// NTM (11731650_a_at) / RFU MAPK11 (11762145_a_at) / Fold change /veh MAPK11 (11762145_a_at) / RFU FIZ1 (11724087_x_at) / Fold change /veh FIZ1 (11724087_x_at) / RFU OASL (11726364_x_at) / Fold change /veh OASL (11726364_x_at) / RFU SOX15 (11748057_x_at) / Fold change /veh SOX15 (11748057_x_at) / RFU CD79A (11719716_a_at) / Fold change /veh CD79A (11719716_a_at) / RFU HIST1H1D (11736915_at) / Fold change /veh HIST1H1D (11736915_at) / RFU CASKIN2 (11723855_a_at) / Fold change /veh CASKIN2 (11723855_a_at) / RFU LOC730098 (11760151_x_at) / Fold change /veh LOC730098 (11760151_x_at) / RFU OR4N2 (11742367_at) / Fold change /veh OR4N2 (11742367_at) / RFU PRRT2 (11749266_a_at) / Fold change /veh PRRT2 (11749266_a_at) / RFU SNX32 (11753110_a_at) / Fold change /veh SNX32 (11753110_a_at) / RFU CDHR5 (11726645_a_at) / Fold change /veh CDHR5 (11726645_a_at) / RFU RCAN1 (11760418_a_at) / Fold change /veh RCAN1 (11760418_a_at) / RFU FAM167A (11723789_a_at) / Fold change /veh FAM167A (11723789_a_at) / RFU FAM26E (11764081_at) / Fold change /veh FAM26E (11764081_at) / RFU ISYNA1 (11749810_s_at) / Fold change /veh ISYNA1 (11749810_s_at) / RFU ACY1 (11761880_at) / Fold change /veh ACY1 (11761880_at) / RFU 11764098_at / Fold change /veh 11764098_at / RFU SAMD14 (11745864_x_at) / Fold change /veh SAMD14 (11745864_x_at) / RFU NPB (11741838_a_at) / Fold change /veh NPB (11741838_a_at) / RFU TMPRSS6 (11731388_a_at) / Fold change /veh TMPRSS6 (11731388_a_at) / RFU KRTAP10-2 (11738614_at) / Fold change /veh KRTAP10-2 (11738614_at) / RFU ARHGAP8 /// PRR5-ARHGAP8 (11727945_x_at) / Fold change /veh ARHGAP8 /// PRR5-ARHGAP8 (11727945_x_at) / RFU KRTAP5-7 /// NADSYN1 (11734609_at) / Fold change /veh KRTAP5-7 /// NADSYN1 (11734609_at) / RFU RASL12 (11751679_a_at) / Fold change /veh RASL12 (11751679_a_at) / RFU CDKN2B (11736163_a_at) / Fold change /veh CDKN2B (11736163_a_at) / RFU PRF1 (11729649_at) / Fold change /veh PRF1 (11729649_at) / RFU, ZNF638 /// ZNF638-IT1 / Fold change vs veh, ZNF638 /// ZNF638-IT1 / RFU, PANK3 / Fold change vs veh, PANK3 / RFU, SH3YL1 / Fold change vs veh, SH3YL1 / RFU, ZEB2 / Fold change vs veh, ZEB2 / RFU, NRIP1 / Fold change vs veh, NRIP1 / RFU, PTTG1IP / Fold change vs veh, PTTG1IP / RFU, CAPN2 / Fold change vs veh, CAPN2 / RFU, MED14 / Fold change vs veh, MED14 / RFU, SNORA58 / Fold change vs veh, SNORA58 / RFU, C1orf63 / Fold change vs veh, C1orf63 / RFU, LRRFIP1 / Fold change vs veh, LRRFIP1 / RFU, NDUFAF7 / Fold change vs veh, NDUFAF7 / RFU, SLC12A2 / Fold change vs veh, SLC12A2 / RFU, IBTK / Fold change vs veh, IBTK / RFU, ESF1 / Fold change vs veh, ESF1 / Fold change vs veh, TMEM50B / RFU, TAOK1 / Fold change vs veh, TAOK1 / RFU, ACBD3 / Fold change vs veh, ACBD3 / RFU, TMA16 / Fold change vs veh, TMA16 / RFU, RWDD3 / Fold change vs veh, RWDD3 / RFU, BCAT1 / Fold change vs veh, BCAT1 / RFU, EDEM3 / Fold change vs veh, EDEM3 / RFU, TMEM33 / Fold change vs veh, TMEM33 / RFU, WDR75 / Fold change vs veh, WDR75 / RFU, AHCTF1 / Fold change vs veh, AHCTF1 / RFU, TFRC / Fold change vs veh, TFRC / RFU, ZDHHC17 / Fold change vs veh, ZDHHC17 / RFU, NOM1 / Fold change vs veh, NOM1 / RFU, ARL8B / Fold change vs veh, ARL8B / RFU, ZBTB11 / Fold change vs veh, ZBTB11 / RFU, TAMM41 / Fold change vs veh, TAMM41 / RFU, KIAA1704 /// LOC100996395 / Fold change vs veh, KIAA1704 /// LOC100996395 / RFU, ING1 / Fold change vs veh, ING1 / RFU, TRMT61B / Fold change vs veh, TRMT61B / RFU, FUBP3 / Fold change vs veh, FUBP3 / RFU, TP53 / Fold change vs veh, TP53 / RFU, TNKS2 / Fold change vs veh, TNKS2 / RFU, ZFP14 / Fold change vs veh, ZFP14 / RFU, ACTR2 / Fold change vs veh, ACTR2 / RFU, PPP3R1 / Fold change vs veh, PPP3R1 / RFU, PIK3R1 / Fold change vs veh, PIK3R1 / RFU, HNRNPA1 / Fold change vs veh, HNRNPA1 / RFU, RNF170 / Fold change vs veh, RNF170 / RFU, ZNF28 / Fold change vs veh, ZNF28 / RFU, RNGTT / Fold change vs veh, RNGTT / RFU, OGT / Fold change vs veh, OGT / RFU, BRD1 / Fold change vs veh, BRD1 / RFU, MARS / Fold change vs veh, MARS / RFU, ZNF655 / Fold change vs veh, ZNF655 / RFU, FAHD1 / Fold change vs veh, FAHD1 / RFU, BDP1 / Fold change vs veh, BDP1 / RFU, LRRCC1 / Fold change vs veh, LRRCC1 / RFU, ARID1A / Fold change vs veh, ARID1A / RFU, ZNF146 / Fold change vs veh, ZNF146 / RFU, ZNF330 / Fold change vs veh, ZNF330 / RFU, GPN3 / Fold change vs veh, GPN3 / RFU, C9orf123 / Fold change vs veh, C9orf123 / RFU, N4BP2L2 / Fold change vs veh, N4BP2L2 / RFU, ARFIP1 / Fold change vs veh, ARFIP1 / RFU, FAM179B / Fold change vs veh, FAM179B / RFU, BCL10 / Fold change vs veh, BCL10 / RFU, UHRF1BP1L / Fold change vs veh, UHRF1BP1L / RFU, BET1 / Fold change vs veh, BET1 / RFU, CNOT2 / Fold change vs veh, CNOT2 / RFU, ZNF268 / Fold change vs veh, ZNF268 / Fold change vs veh, ZNF507 / RFU, DGCR2 / Fold change vs veh, DGCR2 / RFU, WDSUB1 / Fold change vs veh, WDSUB1 / Fold change vs veh, HSP90B1 /// MIR3652 / RFU, ADSS / Fold change vs veh, ADSS / RFU, GK / Fold change vs veh, GK / RFU, ZNF148 / Fold change vs veh, ZNF148 / RFU, TAF9 / Fold change vs veh, TAF9 / RFU, SLC1A5 / Fold change vs veh, SLC1A5 / RFU, SLMO2 / Fold change vs veh, SLMO2 / RFU, ABCC4 / Fold change vs veh, ABCC4 / RFU, LOC101060439 /// RAP1B / Fold change vs veh, LOC101060439 /// RAP1B / RFU, RFX7 / Fold change vs veh, RFX7 / RFU, GTPBP10 / Fold change vs veh, GTPBP10 / RFU, CNEP1R1 / Fold change vs veh, CNEP1R1 / RFU, BIVM-ERCC5 /// ERCC5 / Fold change vs veh, BIVM-ERCC5 /// ERCC5 / RFU, ILF3 / Fold change vs veh, ILF3 / RFU 11762660_at / Fold change /veh 11762660_at / RFU VCAN (11757783_s_at) / Fold change /veh VCAN (11757783_s_at) / RFU DDX43 (11728927_at) / Fold change /veh DDX43 (11728927_at) / RFU KRT8 (11758188_x_at) / Fold change /veh KRT8 (11758188_x_at) / RFU NKD1 (11759106_at) / Fold change /veh NKD1 (11759106_at) / RFU SRD5A1 (11742802_a_at) / Fold change /veh SRD5A1 (11742802_a_at) / RFU TPSAB1 /// TPSB2 (11721975_s_at) / Fold change /veh TPSAB1 /// TPSB2 (11721975_s_at) / RFU GSTM3 (11746129_a_at) / Fold change /veh GSTM3 (11746129_a_at) / RFU IL23R (11737362_x_at) / Fold change /veh IL23R (11737362_x_at) / RFU TMEM51 (11727254_a_at) / Fold change /veh TMEM51 (11727254_a_at) / RFU PIWIL2 (11732686_x_at) / Fold change /veh PIWIL2 (11732686_x_at) / RFU ORM1 (11744905_x_at) / Fold change /veh ORM1 (11744905_x_at) / RFU CCDC152 (11743942_at) / Fold change /veh CCDC152 (11743942_at) / RFU ECM1 (11717891_a_at) / Fold change /veh ECM1 (11717891_a_at) / RFU IL23R (11748794_a_at) / Fold change /veh IL23R (11748794_a_at) / RFU TNFAIP8L3 (11732012_x_at) / Fold change /veh TNFAIP8L3 (11732012_x_at) / RFU MBOAT4 (11741988_at) / Fold change /veh MBOAT4 (11741988_at) / RFU 11764193_at / Fold change /veh 11764193_at / RFU TMEM53 (11763286_at) / Fold change /veh TMEM53 (11763286_at) / RFU MAGEB2 (11727129_at) / Fold change /veh MAGEB2 (11727129_at) / RFU TMEM200A (11744735_a_at) / Fold change /veh TMEM200A (11744735_a_at) / RFU CCDC152 (11751479_a_at) / Fold change /veh CCDC152 (11751479_a_at) / RFU FAM211A (11726209_a_at) / Fold change /veh FAM211A (11726209_a_at) / RFU RGS16 (11746705_a_at) / Fold change /veh RGS16 (11746705_a_at) / RFU VCAN (11755009_s_at) / Fold change /veh VCAN (11755009_s_at) / RFU RHOB (11743442_s_at) / Fold change /veh RHOB (11743442_s_at) / RFU RGS16 (11720943_a_at) / Fold change /veh RGS16 (11720943_a_at) / RFU RGS16 (11720944_at) / Fold change /veh RGS16 (11720944_at) / RFU, VPS4B / Fold change vs veh, VPS4B / RFU, CREB1 / Fold change vs veh, CREB1 / RFU, DNAJC13 / Fold change vs veh, DNAJC13 / RFU, GNAQ / Fold change vs veh, GNAQ / RFU, CDK5R1 / Fold change vs veh, CDK5R1 / RFU, ZRANB3 / Fold change vs veh, ZRANB3 / RFU, CUL4A / Fold change vs veh, CUL4A / RFU, CCNY / Fold change vs veh, CCNY / RFU, UFL1 / Fold change vs veh, UFL1 / RFU, COG3 / Fold change vs veh, COG3 / RFU, DIAPH2 / Fold change vs veh, DIAPH2 / RFU, SKA2 / Fold change vs veh, SKA2 / RFU, AFF3 / Fold change vs veh, AFF3 / RFU, LMF1 / Fold change vs veh, LMF1 / RFU, IPO11 / Fold change vs veh, IPO11 / RFU, DFFB / Fold change vs veh, DFFB / RFU, FOXP1 / Fold change vs veh, FOXP1 / RFU, CARD8 / Fold change vs veh, CARD8 / RFU, STRN3 / Fold change vs veh, STRN3 / RFU, ADK / Fold change vs veh, ADK / RFU, RASSF2 / Fold change vs veh, RASSF2 / RFU, WIPF1 / Fold change vs veh, WIPF1 / RFU, LARP1B / Fold change vs veh, LARP1B / RFU, RASA1 / Fold change vs veh, RASA1 / RFU, RB1 / Fold change vs veh, RB1 / RFU, PPFIA1 / Fold change vs veh, PPFIA1 / RFU, MAT2A / Fold change vs veh, MAT2A / RFU, CCT5 / Fold change vs veh, CCT5 / RFU, WDR92 / Fold change vs veh, WDR92 / RFU, CUX1 / Fold change vs veh, CUX1 / RFU, TTC7A / Fold change vs veh, TTC7A / RFU, TMEM135 / Fold change vs veh, TMEM135 / RFU, DEPTOR / Fold change vs veh, DEPTOR / RFU, CPM / Fold change vs veh, CPM / RFU, DNAJB6 / Fold change vs veh, DNAJB6 / RFU, CACNA2D3 / Fold change vs veh, CACNA2D3 / RFU, DTX4 / Fold change vs veh, DTX4 / RFU, TFCP2 / Fold change vs veh, TFCP2 / RFU, GMCL1 /// GMCL1P1 / Fold change vs veh, GMCL1 /// GMCL1P1 / RFU, AEBP2 / Fold change vs veh, AEBP2 / RFU, SNHG1 /// SNORD22 /// SNORD25 /// SNORD26 /// SNORD27 /// SNORD28 /// SNORD29 /// SNORD31 / Fold change vs veh, SNHG1 /// SNORD22 /// SNORD25 /// SNORD26 /// SNORD27 /// SNORD28 /// SNORD29 /// SNORD31 / Fold change (Aza/veh), C12orf56 (ProbeSet 11735607_a_at) / Fold change (ACY-1035/veh), C12orf56 (ProbeSet 11735607_a_at) / Fold change (Aza/veh), FGFR1OP (ProbeSet 11751329_s_at) / Fold change (ACY-1035/veh), FGFR1OP (ProbeSet 11751329_s_at) / Fold change (Aza/veh), VPS36 (ProbeSet 11739960_a_at) / Fold change (ACY-1035/veh), VPS36 (ProbeSet 11739960_a_at) / RFU SYPL1 (11715823_x_at) / Fold change /veh SYPL1 (11715823_x_at) / RFU IGFBP7 (11715501_s_at) / Fold change /veh IGFBP7 (11715501_s_at) / RFU REEP3 (11722064_at) / Fold change /veh REEP3 (11722064_at) / RFU IGLL1 (11728026_x_at) / Fold change /veh IGLL1 (11728026_x_at): dose or concentration left out as unconfirmed
Conditions: MV-4-11 cells, 48 hours

Nc1ccc(-c2cccs2)cc1NC(=O)c1ccc2c(c1)cc(C1CC1)n2CCN1CCOCC1 [ACY-1035]
Fold change /veh VCAN (11757783_s_at): 1.01
